# Experimental data: patent publication US20040077618A1, “Cycloalkylamides and their therapeutic applications” (priority 2002, published 2004)
# How the values were obtained:
# CD-1 mice [1] = experiment: Subcutaneous pentylenetetrazole (PTZ) seizure procedure; assay type: in vivo; conditions: Mus musculus; PTZ 85 mg/kg subcutaneous; oral pretreatment 30 minutes prior; observed 15 minutes; linear regression; male CD-1 mice; read-out: ED50 (dose at which 50% of the mice were protected from tonic seizures)
# Method: (§1) Adult, male, CD-1 mice (22-25 grams) were obtained from Charles River Laboratories (Portage, Mich.) and housed at Abbott Laboratories (Abbott Park) under standard lighting conditions of 12 hours on/12 hours off, with lights on at 6 a.m. Food and water were provided ad libitum and mice weighed 25-35 grams at the time of testing.
# (§2) Compounds were prepared for oral administration by suspending them in a vehicle of 100 uL Tween® 80 per mL hydroxypropyl methylcellulose (2 mg/mL, Abbott Laboratories). Compound solutions were administered at a volume of 10 mL/kg, p.o.
# The method used was similar to that of E. A. Swinyard, General principles: Experimental selection, quantification and evaluation of anti-convulsants, Anti-epileptic Drugs, Third Edition, R. Levey, et al., Editors. 1989, Raven Press Ltd: New York. During the experiment the mice were housed individually in clear polycarbonate cages for observation. […] Seizures were induced by the subcutaneous injection of pentylenetetrazole (PTZ, 85 mg/kg) just below the nape of the neck. […] A total of 20 mice were used in each group. The ED50 for the compounds were calculated using linear regression and represent the dose at which 50% of the mice were protected from tonic seizures.
# CD-1 mice [2] = experiment: Maximal electroshock procedure (protection from tonic seizures); assay type: in vivo; conditions: Mus musculus, corneal electrodes 50 mA 0.4 second, oral pretreatment 30 minutes prior, PROBIT analysis, male CD-1 mice, read-out: ED50 (dose at which 50% of the mice were protected from tonic seizures)
# Method: as §1, §2
# The method used was similar to that of E. A. Swinyard, General principles: Experimental selection, quantification and evaluation of anti-convulsants, Anti-epileptic Drugs, Third Edition, R. Levey, et al., Editors. 1989, Raven Press Ltd: New York. Mice were pretreated orally with compounds of the present invention 30 minutes prior to electrical stimulation. Electrical stimulation consisted of pulsed electrical current (50 mA, 0.4 second duration, pulse width 0.5 msec, 60 pulses/sec) applied via corneal electrodes to induce seizure. The stimulation was delivered with an ECT Unit (Ugo Basile #7801). […] The percent protection from tonic seizures was calculated by dividing the number of protected mice by the total number in the group. […]
compound,measurement,setting,value
CCCC(CCC)C(=O)O [Valproate],ED50,CD-1 mice [1],1800 µmol/kg
same,ED50,CD-1 mice [2],1200 µmol/kg
